Measurements from ChEMBL document CHEMBL1134974, “Diaza- and triazachrysenes: potent topoisomerase-targeting agents with exceptional antitumor activity against the human tumor xenograft, MDA-MB-435” (Bioorg Med Chem Lett, 2002).

How the values were obtained:
RPMI 8402 [1] = experiment: Cytotoxicity using camptothecin-resistant variant of RPM18402 (CPT-K5) possessing functional, but mutant TOP-1; type: cell-based; details: Homo sapiens
[2] = molecular target: DNA topoisomerase II (Homo sapiens) (UniProt P11388+Q02880); experiment: TOP-2 mediated DNA cleavage measured as effective concentration relative to VM26; type: functional
[3] = molecular target: T1, DNA topoisomerase 1 (Homo sapiens) (UniProt P11387); experiment: TOP-1 mediated DNA cleavage measured as effective concentration relative to topotecan = 1; type: functional
T1 sequence (whole entry): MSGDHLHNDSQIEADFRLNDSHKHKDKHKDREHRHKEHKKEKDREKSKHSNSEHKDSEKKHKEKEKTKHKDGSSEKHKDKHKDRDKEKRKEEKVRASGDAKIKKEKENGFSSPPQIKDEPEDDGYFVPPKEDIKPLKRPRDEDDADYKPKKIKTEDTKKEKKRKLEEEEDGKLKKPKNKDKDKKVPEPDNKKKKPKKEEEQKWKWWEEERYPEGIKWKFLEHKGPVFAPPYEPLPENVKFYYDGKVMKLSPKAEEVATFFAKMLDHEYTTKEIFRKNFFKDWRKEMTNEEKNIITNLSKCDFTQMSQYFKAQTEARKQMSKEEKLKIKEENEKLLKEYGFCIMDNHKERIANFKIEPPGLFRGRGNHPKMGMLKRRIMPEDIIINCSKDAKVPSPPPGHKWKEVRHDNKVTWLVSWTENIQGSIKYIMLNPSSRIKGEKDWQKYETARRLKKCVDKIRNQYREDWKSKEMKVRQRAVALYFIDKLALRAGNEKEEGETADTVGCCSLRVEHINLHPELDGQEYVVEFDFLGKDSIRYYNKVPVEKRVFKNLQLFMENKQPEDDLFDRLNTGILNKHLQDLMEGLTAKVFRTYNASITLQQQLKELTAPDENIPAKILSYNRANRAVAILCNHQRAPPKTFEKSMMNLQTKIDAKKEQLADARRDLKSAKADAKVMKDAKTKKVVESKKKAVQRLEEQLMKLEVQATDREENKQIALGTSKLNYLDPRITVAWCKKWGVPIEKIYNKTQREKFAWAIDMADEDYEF

RPMI 8402 [4] = experiment: Cytotoxicity against human lymphoblast tumor cell line RPM18402; type: functional, cell-based
Mus musculus [5] = experiment: In vivo antitumor activity in NCR-nude-nude mice inoculated with 1.2 E6 -1.5 E6 MDA-MB-435 cells; after day 13 with an average dose of 0.22 mg/mouse (ip); type: functional
Mus musculus [6] = experiment: In vivo antitumor activity in NCR-nude-nude mice inoculated with 1.2 E6 -1.5 E6 MDA-MB-435 cells; after day 13 with an average dose of 0.27 mg/mouse (po); type: functional
Mus musculus [7] = experiment: In vivo antitumor activity in NCR-nude-nude mice inoculated with 1.2 E6 -1.5 E6 MDA-MB-435 cells; after day 21 with an average dose of 0.22 mg/mouse (ip); type: functional
Mus musculus [8] = experiment: In vivo antitumor activity in NCR-nude-nude mice inoculated with 1.2 E6 -1.5 E6 MDA-MB-435 cells; after day 31 with an average dose of 0.22 mg/mouse (ip); type: functional
Mus musculus [9] = experiment: In vivo antitumor activity in NCR-nude-nude mice inoculated with 1.2 E6 -1.5 E6 MDA-MB-435 cells; after day 31 with an average dose of 0.27 mg/mouse (po); type: functional
Mus musculus [10] = experiment: In vivo antitumor activity in NCR-nude-nude mice inoculated with 1.2 E6 -1.5 E6 MDA-MB-435 cells; after day 7 with an average dose of 0.22 mg/mouse (ip); type: functional
Mus musculus [11] = experiment: In vivo antitumor activity in NCR-nude-nude mice inoculated with 1.2 E6 -1.5 E6 MDA-MB-435 cells; after day 7 with an average dose of 0.27 mg/mouse (po); type: functional
Mus musculus [12] = experiment: In vivo antitumor activity in NCR-nude-nude mice inoculated with 1.2 E6 -1.5 E6 MDA-MB-435 cells; after day 21 with an average dose of 0.27 mg/mouse (po); type: functional
Mus musculus [13] = experiment: In vivo antitumor activity in NCR-nude-nude mice inoculated with 1.2 E6 -1.5 E6 MDA-MB-435 cells after day 13 with an average dose of 0.73 mg/mouse (ip); type: functional
Mus musculus [14] = experiment: In vivo antitumor activity in NCR-nude-nude mice inoculated with 1.2 E6 -1.5 E6 MDA-MB-435 cells after day 13 with an average dose of 0.78 mg/mouse (po); type: functional
Mus musculus [15] = experiment: In vivo antitumor activity in NCR-nude-nude mice inoculated with 1.2 E6 -1.5 E6 MDA-MB-435 cells after day 21 with an average dose of 0.73 mg/mouse (ip); type: functional
Mus musculus [16] = experiment: In vivo antitumor activity in NCR-nude-nude mice inoculated with 1.2 E6 -1.5 E6 MDA-MB-435 cells after day 21 with an average dose of 0.78 mg/mouse(po); type: functional
Mus musculus [17] = experiment: In vivo antitumor activity in NCR-nude-nude mice inoculated with 1.2 E6 -1.5 E6 MDA-MB-435 cells after day 31 with an average dose of 0.73 mg/mouse (ip); type: functional
Mus musculus [18] = experiment: In vivo antitumor activity in NCR-nude-nude mice inoculated with 1.2 E6 -1.5 E6 MDA-MB-435 cells after day 31 with an average dose of 0.78 mg/mouse (po); type: functional
Mus musculus [19] = experiment: In vivo antitumor activity in NCR-nude-nude mice inoculated with 1.2 E6 -1.5 E6 MDA-MB-435 cells after day 7 with an average dose of 0.73 mg/mouse (ip); type: functional
Mus musculus [20] = experiment: In vivo antitumor activity in NCR-nude-nude mice inoculated with 1.2 E6 -1.5 E6 MDA-MB-435 cells after day 7 with an average dose of 0.78 mg/mouse (po); type: functional
Mus musculus [21] = experiment: In vivo antitumor activity in NCR-nude-nude mice inoculated with 1.2 E6 -1.5 E6 MDA-MB-435 cells; after day 13 with an average dose of 13.88 mg/mouse (ip); type: functional
Mus musculus [22] = experiment: In vivo antitumor activity in NCR-nude-nude mice inoculated with 1.2 E6 -1.5 E6 MDA-MB-435 cells; after day 21 with an average dose of 13.88 mg/mouse (ip); type: functional
Mus musculus [23] = experiment: In vivo antitumor activity in NCR-nude-nude mice inoculated with 1.2 E6 -1.5 E6 MDA-MB-435 cells; after day 31 with an average dose of 13.88 mg/mouse (ip); type: functional
Mus musculus [24] = experiment: In vivo antitumor activity in NCR-nude-nude mice inoculated with 1.2 E6 -1.5 E6 MDA-MB-435 cells; after day 7 with an average dose of 13.88 mg/mouse (ip); type: functional

Compound	REC [2]	REC [3]	IC50 (RPMI 8402 [1]) [µM]	IC50 (RPMI 8402 [4]) [µM]	further results
CC[C@@]1(O)C(=O)OCc2c1cc1n(c2=O)Cc2cc3c(CN(C)C)c(O)ccc3nc2-1 [TOPOTECAN]	> 100	1	> 10	0.012	
COc1cc2c(=O)n(CCN(C)C)c3c4cc5c(cc4ncc3c2cc1OC)OCO5	> 100		0.9	0.002	Average tumor volume (Mus musculus [13]): 84 mm**3; Average tumor volume (Mus musculus [14]): 148 mm**3; Average tumor volume (Mus musculus [15]): 65 mm**3; Average tumor volume (Mus musculus [16]): 99 mm**3; Average tumor volume (Mus musculus [17]): 40 mm**3; Average tumor volume (Mus musculus [18]): 62 mm**3; Average tumor volume (Mus musculus [19]): 123 mm**3; Average tumor volume (Mus musculus [20]): 159 mm**3
COc1cc([C@@H]2c3cc4c(cc3[C@@H](O[C@@H]3O[C@@H]5CO[C@@H](c6cccs6)O[C@H]5[C@H](O)[C@H]3O)[C@H]3COC(=O)[C@H]23)OCO4)cc(OC)c1O [TENIPOSIDE]	> 100	> 1000	0.28	0.22	
COc1cc2c(=O)n(CC3CCCO3)c3c4cc5c(cc4ncc3c2cc1OC)OCO5 (configuration not stated)	> 100	200	> 10	0.15	
COc1cc2c(=O)n(C(C)CN(C)C)c3c4cc5c(cc4ncc3c2cc1OC)OCO5 (configuration not stated)	> 100	> 1000	3.4	0.57	
CCc1c2c(nc3ccc(OC(=O)N4CCC(N5CCCCC5)CC4)cc13)-c1cc3c(c(=O)n1C2)CCC(=O)C3(O)CC (configuration not stated)	> 100		> 10		Average tumor volume (Mus musculus [21]): 116 mm**3; Average tumor volume (Mus musculus [22]): 36 mm**3; Average tumor volume (Mus musculus [23]): 11 mm**3; Average tumor volume (Mus musculus [24]): 118 mm**3

Second part, led by results:

REC [2]	REC [3]	Compound	IC50 (RPMI 8402 [1]) [µM]	IC50 (RPMI 8402 [4]) [µM]	further results
> 100	1	CCCCn1c(=O)c2cc(OC)c(OC)cc2c2nnc3cc4c(cc3c21)OCO4	10	0.004	
> 100	0.3	COc1cc2c(=O)n(CCN(C)C)c3c4cc5c(cc4nnc3c2cc1OC)OCO5	0.6	0.001	Average tumor volume (Mus musculus [5]): 211 mm**3; Average tumor volume (Mus musculus [6]): 183 mm**3; Average tumor volume (Mus musculus [7]): 252 mm**3; Average tumor volume (Mus musculus [8]): 403 mm**3; Average tumor volume (Mus musculus [9]): 200 mm**3; Average tumor volume (Mus musculus [10]): 167 mm**3; Average tumor volume (Mus musculus [11]): 154 mm**3; Average tumor volume (Mus musculus [12]): 207 mm**3
> 100	1000	COc1cc2c(=O)n(C(C)CN(C)C)c3c4cc5c(cc4nnc3c2cc1OC)OCO5 (configuration not stated)	3.6	0.26	
> 100	30	COc1cc2c(=O)n(CC3CCCO3)c3c4cc5c(cc4nnc3c2cc1OC)OCO5 (configuration not stated)	> 10	0.01	
